We go through two molecules from article PMC11996864, “A small-molecule inhibitor of BCL10-MALT1 interaction abrogates progression of diffuse large B cell lymphoma” (The Journal of Clinical Investigation, 2025).

pIC50: −log10 of the molar value. Values joined by “and” are separate entries in the source; they are usually repeats but may differ in a detail not shown here. Equal entries are not always repeated. Where two headings read alike, the source gives them in different places.

In data set [1] the test system is C57BL/6 mice. In words: Long-term (28 days) in vivo toxicity. Set-up: species or system mouse. The protocol: Long-term in vivo toxicity experiments. WT C57/BL6 (The Jackson Laboratory) male and female mice were treated daily with 50 mg/kg M1i-124 or vehicle control for 28 days. At the time of sacrifice, blood was obtained for complete blood count, alanine transaminase, albumin, and total bilirubin (Abaxis). Livers from control and M1i-124 treated mice were collected for H&E analysis. […]

The test system of data set [2] is BJAB cells. The data set is described as follows: Apoptosis, annexin staining flow cytometry. The data set is classed as cell-based, human. On the technique in general: Flow cytometry measures light scatter and fluorescence of single cells or particles in a stream.
Data set [3] relates to TMD8 cells. In words: CellTiter-Glo ATP viability. Format: cell-based, human. A general note: ATP-based viability assays read luminescence as a measure of living cells.
In data set [4] the target is T1, PDE4 (Homo sapiens, UniProt Q08499).
T1 construct: Eurofins SAFETYscan78
The data set is described as follows: SAFETYscan78 off-target screen. Conditions: off-target panel; read-out: EC50 or IC50, PDE4. The source says:
(§1) We also tested for possible adverse actions of M1i-124 on cytochrome P450 (CYP) enzymes that might limit its use in vivo. The CYP family of enzymes are responsible for phase I metabolism of many drugs and endogenous substances, and their inhibition can lead to unanticipated toxicities. […] To further test for potential off-target effects of M1i-124, we conducted an in vitro safety pharmacology profiling screen that measures the ability of a candidate compound to inhibit 78 key GPCRs, ion channels, nuclear hormone receptors, neurotransmitter transporters, kinases, and non-kinase enzymes. […]
(§2) cological profile for M1i-124. EC50 or I C50 f or act i vi t y agai nst sel ect GPCRs, i on channel s, nucl ear hor mone r eceptor s, ki nases, and neur otr ansmi tter tr anspor ter s i n an off-target activity screen of M1i-124 (Eurofins SAFETYscan78). When unmeasurable, the EC50 or IC50 for an indicated target is listed as >10 […]
(§3) (1 picture or pasted object on this page, not shown here)

The target in data set [5] is T2, VEGFR2 (Homo sapiens, UniProt P35968).
T2 construct: Eurofins SAFETYscan78
In words: SAFETYscan78 off-target screen. Conditions: off-target panel; read-out: EC50 or IC50, VEGFR2.
Source text: as §1, §2, §3

The target in data set [6] is T3, hERG (Homo sapiens, UniProt Q12809).
T3 construct: Eurofins SAFETYscan78
The data set is described as follows: SAFETYscan78 off-target screen. Conditions: off-target panel; read-out: EC50 or IC50, hERG.
Source text: as §1, §2, §3
For orientation: The hERG channel carries a current that helps repolarise heart muscle cells.

The target in data set [7] is T4, INSR (Homo sapiens, UniProt P06213).
T4 construct: Eurofins SAFETYscan78
In words: SAFETYscan78 off-target screen. Conditions: off-target panel; read-out: EC50 or IC50, INSR.
Source text: as §1, §2, §3

Data set [8] has as its target T5, ROCK1 (Homo sapiens, UniProt Q13464).
T5 construct: Eurofins SAFETYscan78
In words: SAFETYscan78 off-target screen. Conditions: off-target panel; read-out: EC50 or IC50, ROCK1.
Source text: as §1, §2, §3

The test system of data set [9] is COX1/2. In words: SAFETYscan78 off-target screen. Conditions: off-target panel; read-out: EC50 or IC50, COX1/2.
Source text: as §1, §2, §3

For data set [10], the system named is OCI-Ly7 cells. The data set is described as follows: Apoptosis, annexin staining flow cytometry. Format: cell-based, human.
Data set [11] has as its system all CYP enzymes tested (CYP1A2, CYP2C9, CYP2C19, CYP2D6, CYP3A4). The data set is described as follows: Reversible CYP inhibition, all enzymes tested. The data set is classed as in vitro ADME. Conditions: both sexes, human, pooled human liver microsomes; read-out: IC50 against all CYP enzymes tested. The protocol: Pharmacokinetic and cytochrome P450 inhibition studies. Studies were performed with the assistance of Touchstone Biosciences (Plymouth Meeting, Pennsylvania). […]
For reversible CYP […]
inhibition studies, different concentrations of M1i-124 were added to 0.2 mg/ml pooled, mixed-gender human liver microsomes (HLM). Each CYP450 isoform-specific probe substrate (CYP1A2, CYP2C9, CYP2C19, CYP2D6, and CYP3A4) was incubated individually with HLM and M1i-124 or corresponding positive control inhibitor (Phenacetin, Tolbutamaide, S-Mephenytoin, Dextromethorphan, Midazolam, and Testosterone). Samples were analyzed for metabolites of the probe substrates by LC-MS/MS at each of the test compound concentrations. A decrease in the formation of the metabolites compared to vehicle control was used to calculate the […]

Data set [12] relates to TMD8 cells. In words: CellTrace Violet dilution/cell division assay. Format: cell-based, human. Conditions: TMD8, 1 μM. The protocol: (§4) Cell proliferation, viability, and apoptosis assays. […]
(§5) CellTrace Violet reagent (ThermoFisher, Cat#
(§6) C34571) was used as a cell division tracking dye for OCI-Ly1, OCI-Ly3, and TMD8 cells treated with 1 μM of compound M1i-124 or DMSO control, where the intensity of the staining decreases with each round of cell division. At days 0 and 6 after staining of DMSO- and compound-treated cells, CellTrace Violet fluorescence was measured on a BD LSR II instrument and Mean Fluorescent Intensity (MFI) was analyzed by FlowJo (version 10.8.0, BD). […]
(§7) For CellTrace Violet, CellTiter-glo, and Annexin V apoptosis assays, cell were cultured in media with 50% of the usual serum. […]

Data set [13] relates to OCI-Ly3 cells. The data set is described as follows: CellTrace Violet dilution/cell division assay. The data set is classed as cell-based, human. Conditions: OCI-Ly3, 1 μM. The procedure:
as §4, §5, §6, §7

Data set [14] has as its system OCI-Ly1 cells. In words: CellTrace Violet dilution/cell division assay. The data set is classed as cell-based, human. Conditions: OCI-Ly1, 1 μM. The procedure:
as §4, §5, §6, §7

Data set [15] deals with BCL10 and MALT1 mRNA in TMD8 cells. In words: BCL10 and MALT1 mRNA expression, qRT-PCR. The data set is classed as cell-based, human. Conditions: TMD8, 1 μM.
The test system of data set [16] is IL-2 secretion from primary mouse splenocytes. The data set is described as follows: Secreted IL-2 ELISA, stimulated primary splenocytes. Format: cell-based. Conditions: Suppl Fig. 4B; for IL-2 protein level (% of control) / activity at 5 µM: 5 uM; for activity at 1 µM / activity at 5 µM: Mus musculus, Splenocyte, read-out: IL-2 protein level (% of control).
[17] abbreviates: 28 days, vs control, result in words.

T2 sequence (P35968 20-1356): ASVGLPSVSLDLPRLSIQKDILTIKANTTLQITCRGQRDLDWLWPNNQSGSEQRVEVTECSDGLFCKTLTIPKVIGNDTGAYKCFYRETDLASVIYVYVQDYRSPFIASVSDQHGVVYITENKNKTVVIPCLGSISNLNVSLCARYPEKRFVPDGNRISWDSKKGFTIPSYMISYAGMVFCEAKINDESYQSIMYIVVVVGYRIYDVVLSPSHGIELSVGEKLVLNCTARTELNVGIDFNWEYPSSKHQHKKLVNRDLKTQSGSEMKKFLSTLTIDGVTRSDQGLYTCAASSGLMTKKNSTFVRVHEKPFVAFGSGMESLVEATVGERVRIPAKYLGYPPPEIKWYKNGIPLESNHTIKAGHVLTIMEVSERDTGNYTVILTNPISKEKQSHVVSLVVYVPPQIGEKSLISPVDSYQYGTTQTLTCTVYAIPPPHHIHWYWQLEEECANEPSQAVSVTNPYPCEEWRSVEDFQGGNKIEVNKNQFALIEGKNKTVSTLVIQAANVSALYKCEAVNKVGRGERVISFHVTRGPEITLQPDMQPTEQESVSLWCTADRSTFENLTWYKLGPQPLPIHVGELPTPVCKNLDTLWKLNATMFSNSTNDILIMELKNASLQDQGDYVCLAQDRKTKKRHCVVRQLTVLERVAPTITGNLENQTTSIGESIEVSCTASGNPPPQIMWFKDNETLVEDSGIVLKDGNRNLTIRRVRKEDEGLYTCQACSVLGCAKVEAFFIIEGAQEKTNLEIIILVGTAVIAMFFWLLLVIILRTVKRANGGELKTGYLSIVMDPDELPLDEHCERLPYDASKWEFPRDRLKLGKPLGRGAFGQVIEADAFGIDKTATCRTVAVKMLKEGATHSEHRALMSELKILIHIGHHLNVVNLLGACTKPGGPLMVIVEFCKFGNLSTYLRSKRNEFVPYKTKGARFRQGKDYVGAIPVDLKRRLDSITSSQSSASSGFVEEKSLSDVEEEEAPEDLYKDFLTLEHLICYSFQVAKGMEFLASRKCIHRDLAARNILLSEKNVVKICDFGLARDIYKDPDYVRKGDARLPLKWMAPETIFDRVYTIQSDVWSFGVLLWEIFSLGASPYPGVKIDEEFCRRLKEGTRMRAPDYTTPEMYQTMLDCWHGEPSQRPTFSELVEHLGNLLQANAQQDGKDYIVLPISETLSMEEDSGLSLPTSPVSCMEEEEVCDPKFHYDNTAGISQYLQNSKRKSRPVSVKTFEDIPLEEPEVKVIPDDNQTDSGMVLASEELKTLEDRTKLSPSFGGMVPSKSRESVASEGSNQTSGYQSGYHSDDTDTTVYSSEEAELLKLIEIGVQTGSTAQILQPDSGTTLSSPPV
T4 sequence (P06213 28-1382): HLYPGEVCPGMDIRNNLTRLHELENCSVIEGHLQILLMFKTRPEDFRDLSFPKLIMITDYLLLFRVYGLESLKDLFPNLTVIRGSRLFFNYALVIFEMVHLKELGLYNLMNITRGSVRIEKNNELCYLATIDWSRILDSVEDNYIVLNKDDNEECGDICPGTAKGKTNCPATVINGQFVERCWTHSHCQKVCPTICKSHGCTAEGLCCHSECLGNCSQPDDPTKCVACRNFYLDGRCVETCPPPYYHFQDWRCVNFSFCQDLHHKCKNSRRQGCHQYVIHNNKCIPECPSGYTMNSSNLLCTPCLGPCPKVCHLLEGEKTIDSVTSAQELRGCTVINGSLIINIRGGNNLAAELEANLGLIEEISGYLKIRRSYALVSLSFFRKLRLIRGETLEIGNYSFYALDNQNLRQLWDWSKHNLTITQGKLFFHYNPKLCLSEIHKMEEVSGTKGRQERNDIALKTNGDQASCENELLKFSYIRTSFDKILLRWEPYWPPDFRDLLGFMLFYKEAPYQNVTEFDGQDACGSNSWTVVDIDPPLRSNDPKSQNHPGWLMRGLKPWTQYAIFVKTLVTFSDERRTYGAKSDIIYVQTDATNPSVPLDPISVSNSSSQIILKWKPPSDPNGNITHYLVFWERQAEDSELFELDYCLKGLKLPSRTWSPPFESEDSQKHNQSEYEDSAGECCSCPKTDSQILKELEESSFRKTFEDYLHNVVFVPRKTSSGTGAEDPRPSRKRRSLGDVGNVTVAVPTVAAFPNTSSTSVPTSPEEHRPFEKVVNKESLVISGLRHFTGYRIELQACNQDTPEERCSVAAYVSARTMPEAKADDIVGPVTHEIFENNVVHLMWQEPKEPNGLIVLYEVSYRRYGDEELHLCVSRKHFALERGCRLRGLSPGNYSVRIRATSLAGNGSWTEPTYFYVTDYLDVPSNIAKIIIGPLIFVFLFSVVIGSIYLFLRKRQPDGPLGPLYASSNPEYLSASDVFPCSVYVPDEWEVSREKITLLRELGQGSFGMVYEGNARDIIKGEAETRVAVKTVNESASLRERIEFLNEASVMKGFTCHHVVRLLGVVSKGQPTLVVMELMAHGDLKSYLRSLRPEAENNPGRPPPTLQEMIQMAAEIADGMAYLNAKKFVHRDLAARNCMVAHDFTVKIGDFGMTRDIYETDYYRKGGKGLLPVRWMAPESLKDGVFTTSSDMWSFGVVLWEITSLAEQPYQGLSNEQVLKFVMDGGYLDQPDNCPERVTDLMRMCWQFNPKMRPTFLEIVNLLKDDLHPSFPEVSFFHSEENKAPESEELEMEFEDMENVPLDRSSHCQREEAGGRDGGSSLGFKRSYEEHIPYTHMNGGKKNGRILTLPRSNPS
T1 sequence (Q08499 303-809 limits assumed): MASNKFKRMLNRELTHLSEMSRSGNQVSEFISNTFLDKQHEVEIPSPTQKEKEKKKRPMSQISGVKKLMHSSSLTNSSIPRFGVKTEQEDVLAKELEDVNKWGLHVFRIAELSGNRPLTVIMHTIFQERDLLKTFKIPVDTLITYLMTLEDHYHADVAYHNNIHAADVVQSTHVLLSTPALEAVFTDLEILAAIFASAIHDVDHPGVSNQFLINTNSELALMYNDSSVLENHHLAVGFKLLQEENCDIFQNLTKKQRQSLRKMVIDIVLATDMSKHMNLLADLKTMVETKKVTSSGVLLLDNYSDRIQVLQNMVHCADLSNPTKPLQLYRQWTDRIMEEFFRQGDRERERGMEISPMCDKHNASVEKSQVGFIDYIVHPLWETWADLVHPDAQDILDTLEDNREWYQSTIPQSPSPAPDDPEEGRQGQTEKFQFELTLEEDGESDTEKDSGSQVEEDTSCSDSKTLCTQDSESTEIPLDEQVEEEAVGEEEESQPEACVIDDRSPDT
T5 sequence (Q13464 whole entry): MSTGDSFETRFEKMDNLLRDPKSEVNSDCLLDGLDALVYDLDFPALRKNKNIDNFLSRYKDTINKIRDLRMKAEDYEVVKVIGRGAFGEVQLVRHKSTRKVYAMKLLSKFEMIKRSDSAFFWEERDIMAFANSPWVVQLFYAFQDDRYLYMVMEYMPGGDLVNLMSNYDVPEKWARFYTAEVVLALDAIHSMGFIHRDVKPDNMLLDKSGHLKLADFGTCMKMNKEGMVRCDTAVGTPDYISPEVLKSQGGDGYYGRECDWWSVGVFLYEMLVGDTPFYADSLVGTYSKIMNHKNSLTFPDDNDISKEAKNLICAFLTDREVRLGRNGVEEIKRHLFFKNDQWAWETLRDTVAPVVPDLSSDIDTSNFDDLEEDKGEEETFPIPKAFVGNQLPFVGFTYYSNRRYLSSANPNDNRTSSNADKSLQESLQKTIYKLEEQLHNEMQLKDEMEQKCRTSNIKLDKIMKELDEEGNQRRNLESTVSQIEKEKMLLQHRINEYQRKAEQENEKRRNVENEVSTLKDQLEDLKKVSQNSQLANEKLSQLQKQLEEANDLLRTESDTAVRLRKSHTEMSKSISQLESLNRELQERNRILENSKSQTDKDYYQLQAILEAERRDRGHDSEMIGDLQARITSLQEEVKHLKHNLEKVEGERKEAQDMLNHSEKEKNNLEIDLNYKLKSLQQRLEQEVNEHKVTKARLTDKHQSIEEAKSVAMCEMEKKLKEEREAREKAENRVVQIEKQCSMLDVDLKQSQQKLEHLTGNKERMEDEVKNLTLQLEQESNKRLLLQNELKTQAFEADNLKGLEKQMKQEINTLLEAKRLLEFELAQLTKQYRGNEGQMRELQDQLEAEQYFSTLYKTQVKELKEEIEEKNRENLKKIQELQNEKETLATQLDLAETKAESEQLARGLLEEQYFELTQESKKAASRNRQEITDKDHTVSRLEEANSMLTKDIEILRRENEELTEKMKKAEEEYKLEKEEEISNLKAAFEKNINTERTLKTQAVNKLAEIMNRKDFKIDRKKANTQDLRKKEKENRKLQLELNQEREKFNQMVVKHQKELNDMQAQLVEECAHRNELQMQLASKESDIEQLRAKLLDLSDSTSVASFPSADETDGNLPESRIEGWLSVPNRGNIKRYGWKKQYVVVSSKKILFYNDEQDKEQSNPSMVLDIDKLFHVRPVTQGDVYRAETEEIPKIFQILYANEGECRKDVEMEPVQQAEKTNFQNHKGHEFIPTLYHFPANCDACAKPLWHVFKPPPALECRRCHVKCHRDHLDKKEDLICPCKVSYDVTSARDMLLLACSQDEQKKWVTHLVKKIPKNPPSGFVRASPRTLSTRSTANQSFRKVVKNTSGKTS

Take `O=S(=O)(NCc1ccc2c(c1)OCO2)c1ccc(Cc2ccc(S(=O)(=O)NCc3ccc4c(c3)OCO4)cc2)cc1` [M1i-124]: the Albumin result in data set [1] (28 days, result in words) is “decrease in albumin”; in data set [1] (individual mice) it was 3.5 g/dL and 2.5 g/dL and 2.1 g/dL and 1.9 g/dL and 3.2 g/dL. In addition, in data set [1] (28 days, result in words), the “alanine transaminase or total bilirubin” value was “did not result in a change”. In data set [1] (28 days, result in words), the “liver histology (H&E)” value is recorded as “no appreciable difference”. In addition, the “blood counts (white blood cell count, hemoglobin, platelet count)” value in [1] (setting [17]) is recorded as “did not result in a statistically significant change”. Also, in data set [1] (setting [17]), the change in weight result is given as “did not result in a statistically significant change”. Besides, the “% change in body weight” value in data set [1] (C57BL/6 mice, 50 mg/kg daily, 28 days, 50 mg/kg) is 9.778% and 0% and 8.3% and 7.514% and 2.89% and 0.5714% and 7.273% and 4.7619%. For the same molecule, the ALT in data set [1] (individual mice) was 35 U/L and 100 U/L and 26 U/L and 120 U/L and 180 U/L and 125 U/L. The Hemoglobin in data set [1] (individual mice) is 13.2 g/dL and 10.9 g/dL and 13.7 g/dL and 12.6 g/dL and 14 g/dL and 12 g/dL and 10.3 g/dL and 11.3 g/dL and 12.9 g/dL. Moreover, in data set [1] (individual mice), the Platelets is 439 10^9/L and 412 10^9/L and 524 10^9/L and 394 10^9/L and 557 10^9/L and 522 10^9/L and 479 10^9/L and 381 10^9/L and 186 10^9/L. The “Total Bilirubin” value in data set [1] (individual mice) was 0.3 mg/dL and 0.4 mg/dL and 0.2 mg/dL. Also, in data set [1] (individual mice), the WBC is 8.15 10^9/L and 3.97 10^9/L and 4.01 10^9/L and 2.58 10^9/L and 5.28 10^9/L and 4.82 10^9/L and 3.12 10^9/L and 3.23 10^9/L and 1.49 10^9/L. The in vivo tolerability entry in data set [1] (result in words) is recorded as “well tolerated with minimal toxicity”. The “Annexin (% positivity)” value in data set [2] (BJAB, individual replicates) was 34.8% and 31.55% and 33.15%; in data set [10] (Ly7, individual replicates) it was 27% and 16.65% and 14.5%. In addition, the “apoptosis of BJAB cells” value in [2] (result in words) is listed as “either no or minimal apoptotic response”. In addition, the “Percent cell viability (ATP luminescence)” value in data set [3] (TMD8, M1i-124 (µM) 0.02) is 98.5399% and 121.237% and 91.8987%; in data set [3] (TMD8, M1i-124 (µM) 0.05), 110.558% and 93.9485% and 106.792%; in data set [3] (TMD8, M1i-124 (µM) 0.1) it was 120.312% and 100.889%; in data set [3] (TMD8, M1i-124 (µM) 0.2), 81.1675% and 99.7783% and 71.7208%. For the same molecule, the pIC50 in data set [4], in [5], in [6], in [7], in data set [8] and in [9] was less than 5.00 each time. The pIC50 in [11] was less than 5.00. Further, the “apoptosis of OCI-Ly7 cells” value in data set [10] (result in words) is listed as “either no or minimal apoptotic response”. Moreover, the activity at 1 µM in data set [12] (Homo sapiens, TMD8, 144 h, day 6, read-out: CellTrace Violet dilution (Percent of Control)) is 42.2%; in data set [14] (Homo sapiens, OCI-Ly1, 144 h, day 6, read-out: CellTrace Violet dilution (Percent of Control)) it was 73.1%. In addition, the cell division result in data set [12] (6 days, result in words) was “substantially reduced”; in data set [13] (6 days, result in words), “substantially reduced”; in data set [14] (6 days, result in words), “minimal effect”. In addition, the “CellTrace Violet dilution (Percent of Control)” value in [12] (day 6, 1 µM) was 48.11% of Control and 53.597% of Control and 42.644% of Control; in data set [13] (day 6, 1 µM), 39.99% of Control and 46.66% of Control and 31.33% of Control and 60.69% of Control; in [14] (day 6, 1 µM), 82.43% of Control and 74.14% of Control and 90.83% of Control. The “BCL10 mRNA (normalized)” value is 1.102 and 1.661 and 1.831 in data set [15] (48 hrs); 2.063 and 2.239 and 2.314 in data set [15] (72 hrs). In addition, in data set [15] (72 hrs), the “MALT1 mRNA (normalized)” value was 1.674 and 1.428 and 1.962.
For the molecule `CN1CCCC(CN2c3ccccc3Sc3ccccc32)C1` (stereo not drawn) [Mepazine, mepazine, reference compound], in [16] (CD3/CD28 treated), the “IL-2 protein level (% of control)” value is 22.2086 % of control and 29.3738 % of control; the activity at 1 µM was 82.7%; the activity at 5 µM amounted to 15.6%. Further, in data set [16] (PMA/Iono treated), the activity at 1 µM is 83.3%; the activity at 5 µM turned out to be 22.3%; the “IL-2 protein level (% of control)” value is 17.095 % of control and 28.7342 % of control.
